“And” between values parts separate entries of the source, which are not always exact repeats. Equal values may be shown once.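 Each compound was tested at five concentrations against cells in 96-well plates for 48 hours. GI50 = concentration required for 50% inhibition of growth. At the TGI there is no net growth.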
What was measured:
Assay in all cases: NCI anticancer screen, dose series, 48 h
COLO 205 colon = test system: COLO 205 colon
786-0 renal = test system: 786-0 renal
RPMI-8226 leukemia = test system: RPMI-8226 leukemia
SW-620 colon = test system: SW-620 colon
DLD-1 colon = test system: DLD-1 colon
HOP-18 NSCLC = test system: HOP-18 NSCLC
HOP-92 NSCLC = test system: HOP-92 NSCLC
BT-549 breast = test system: BT-549 breast
HS 578T breast = test system: HS 578T breast
DU-145 prostate = test system: DU-145 prostate

Row | Structure (SMILES) | TGI (COLO 205 colon) | TGI (786-0 renal) | TGI (RPMI-8226 leukemia) | TGI (SW-620 colon) | TGI (DLD-1 colon) | TGI (HOP-18 NSCLC) | TGI (HOP-92 NSCLC) | TGI (BT-549 breast) | TGI (HS 578T breast) | TGI (DU-145 prostate) | GI50 (COLO 205 colon) | GI50 (786-0 renal) | GI50 (HOP-92 NSCLC) | GI50 (RPMI-8226 leukemia) | GI50 (SW-620 colon) | GI50 (DLD-1 colon) | GI50 (HOP-18 NSCLC) | GI50 (BT-549 breast) | GI50 (HS 578T breast) | GI50 (DU-145 prostate)
1 | COc1ccc2oc3c(OC)c(OC)c(OC)cc3c(=O)c2c1 | > 100 µM | > 100 µM | > 100 µM | > 100 µM | > 100 µM | > 100 µM |  |  |  |  |  |  |  |  |  |  |  |  |  | 
2 | CCOC(=O)/C(=C/c1cccc(Cl)c1)N(CC)CC | > 100 µM | > 100 µM | > 100 µM | > 100 µM | > 100 µM | 84.6 µM | 84.2 µM |  |  |  |  |  |  |  |  |  |  |  |  | 
3 | CS(=O)(=O)OCCCNCCCOS(C)(=O)=O | 4540 µM | 6310 µM | 6780 µM | 6720 µM | 9100 µM | 2560 µM | 4400 µM | 4500 µM | 8170 µM | 6440 µM |  |  |  |  |  |  |  |  |  | 
4 | C1CCCCc2nc3c(nc2CCC1)c1nc2c(nc1c1nc4c(nc31)CCCCCCCC4)CCCCCCCC2 | > 100 µM | > 100 µM |  | > 100 µM | > 100 µM | > 100 µM | > 100 µM |  |  |  |  |  |  |  |  |  |  |  |  | 
5 | CC1=C(SC#N)S(=O)(=O)N(c2ccccc2)C(C)=C1SC#N |  | > 100 µM | > 100 µM | > 100 µM | > 100 µM |  | 88.7 µM |  |  |  |  |  |  |  |  |  |  |  |  | 
6 | COc1ccccc1NC(=O)C1=C(C)NC(C)=C(C(=O)Nc2ccccc2OC)C1/C=C/c1ccccc1 | > 100 µM | > 100 µM | > 100 µM | > 100 µM | > 100 µM | > 100 µM | > 100 µM |  |  |  |  |  |  |  |  |  |  |  |  | 
7 | CN(C)CC1CC/C(=C\c2ccc3c(c2)OCO3)C1=O (stereo not given) | 18 µM | 13 µM |  | 14.4 µM | 40.3 µM | 29.7 µM | 33.1 µM | 24.9 µM | > 100 µM | 19.7 µM |  |  |  |  |  |  |  |  |  | 
8 | COC1CC(O)C(OC(=O)c2ccccc2)C(C)O1 (stereo not given) | > 100 µM | > 100 µM | > 100 µM | > 100 µM |  | > 100 µM | > 100 µM |  |  |  |  |  |  |  |  |  |  |  |  | 
9 | CCCCCC(=O)Nc1nc2nc[nH]c2c(=O)[nH]1 | > 100 µM | > 100 µM | > 100 µM | > 100 µM | > 100 µM | > 100 µM | > 100 µM |  |  |  |  |  |  |  |  |  |  |  |  | 
10 | Cc1ccc2nc(NC(=O)C(=O)C(C#N)c3ccc(Cl)cc3)sc2c1 (stereo not given) | > 50 µM | > 50 µM | > 50 µM | > 50 µM |  | > 50 µM | > 50 µM |  |  |  |  |  |  |  |  |  |  |  |  | 
11 | CC1OC(=O)C(O)=C1O (stereo not given) | > 100 µM | > 100 µM | > 100 µM | > 100 µM |  | > 100 µM | > 100 µM |  |  |  |  |  |  |  |  |  |  |  |  | 
12 | CCCCCCCC1(c2ccc(N)cc2)CCC(=O)NC1=O (stereo not given) | 52.5 µM | > 100 µM | 40.8 µM | > 100 µM | > 100 µM |  | 51.9 µM |  |  |  |  |  |  |  |  |  |  |  |  | 
13 | CCOC(=O)c1cc(-c2ccc(-c3cc(C(=O)OCC)c(C#N)c(N)c3C#N)cc2)c(C#N)c(N)c1C#N | > 100 µM | > 100 µM | > 100 µM | > 100 µM | > 100 µM | > 100 µM |  |  |  |  |  |  |  |  |  |  |  |  |  | 
14 | CC(C)c1cccc(C(C)C)c1N1C(=O)C(=O)C(c2nc3ccccc3o2)C(=O)C1=O | > 100 µM | 84.3 µM | > 100 µM | > 100 µM | > 100 µM |  | > 100 µM |  |  |  |  |  |  |  |  |  |  |  |  | 
15 | CCC(C)CC(C)CC(C)/C=C(\C)C1=C(C)CC(C)(O)O1 (stereo not given) | > 100 µM | > 100 µM | 90.7 µM | > 100 µM | > 100 µM | > 100 µM | 79.7 µM |  |  |  |  |  |  |  |  |  |  |  |  | 
16 | NC1c2ccccc2Nc2ccccc21 | 6.52 µM | 15.9 µM | 19.6 µM | 14.4 µM | 17.1 µM | 39.7 µM | 16.1 µM |  |  |  |  |  |  |  |  |  |  |  |  | 
17 | COC1=CC(C2c3cc4c(cc3[C@@H](Nc3ccc(F)cc3)C3COC(=O)[C@H]23)OCO4)=CC(=O)C1=O (stereo not given in full) | 41.5 µM | 11.4 µM | > 100 µM | > 50.1 µM | > 100 µM |  | 31.7 µM |  |  |  |  |  |  |  |  |  |  |  |  | 

Row | Structure (SMILES) | TGI (COLO 205 colon) | TGI (786-0 renal) | TGI (RPMI-8226 leukemia) | TGI (SW-620 colon) | TGI (DLD-1 colon) | TGI (HOP-18 NSCLC) | TGI (HOP-92 NSCLC) | TGI (BT-549 breast) | TGI (HS 578T breast) | TGI (DU-145 prostate) | GI50 (COLO 205 colon) | GI50 (786-0 renal) | GI50 (HOP-92 NSCLC) | GI50 (RPMI-8226 leukemia) | GI50 (SW-620 colon) | GI50 (DLD-1 colon) | GI50 (HOP-18 NSCLC) | GI50 (BT-549 breast) | GI50 (HS 578T breast) | GI50 (DU-145 prostate)
18 | C/C(CN1C(=O)c2ccccc2C1=O)=N\NS(=O)(=O)c1cccc(C(=O)O)c1 | > 100 µM | > 100 µM | > 100 µM | > 100 µM | > 100 µM | > 100 µM |  |  |  |  |  |  |  |  |  |  |  |  |  | 
19 | N#CC(C(=O)CCCC(=O)Nc1ccc(Cl)cc1Cl)c1ccccc1 (stereo not given) | > 100 µM | > 100 µM |  | > 100 µM | > 100 µM | > 100 µM | > 100 µM |  |  |  |  |  |  |  |  |  |  |  |  | 
20 | Cc1cccc(C(=O)O)c1C(=O)c1cccc2ccccc12 | > 100 µM | > 100 µM |  | > 100 µM | > 100 µM | > 100 µM |  |  |  |  |  |  |  |  |  |  |  |  |  | 
21 | CC1=C(C(=O)Nc2ccccc2)C(c2ccccc2Cl)C(C(=O)Nc2ccccc2)=C(C)N1 | 34.3 µM | 42.1 µM | 46.9 µM | 76.2 µM | > 100 µM | 56.5 µM | 45.2 µM |  |  |  |  |  |  |  |  |  |  |  |  | 
22 | COCCOc1cc(C)cc(/C=C(C)/C=C/C2=C(C)CCCC2(C)C)n1 | > 100 µM | > 100 µM | 52.3 µM | > 100 µM | > 100 µM | > 100 µM | > 100 µM |  |  |  |  |  |  |  |  |  |  |  |  | 
23 | CC(C)c1cc(C(C)C)c(S(=O)(=O)N=[N+]=[N-])c(C(C)C)c1 | > 100 µM | > 100 µM | 97.6 µM | > 100 µM | > 100 µM |  | > 100 µM |  |  |  |  |  |  |  |  |  |  |  |  | 
24 | O=C(O)CCNS(=O)(=O)c1ccc2ccccc2c1 | > 100 µM | > 100 µM | > 100 µM | > 100 µM | > 100 µM | > 100 µM | > 100 µM |  |  |  |  |  |  |  |  |  |  |  |  | 
25 | O=C(C(=O)n1ncc(Cl)c(Cl)c1=O)n1ncc(Cl)c(Cl)c1=O | 29 µM | 44.6 µM | 26.8 µM | 42.7 µM | 32.4 µM | 67 µM | 49.9 µM |  |  |  |  |  |  |  |  |  |  |  |  | 
26 | CCC[CH2][Sn]([CH2]CCC)([S]C#N)[S]C#N | 3.77 µM | 2.49 µM | 1.34 µM | 1.54 µM | 2.23 µM | 2.44 µM | 3.5 µM |  |  |  | 1400 nM | 1200 nM | 1790 nM | 229 nM | 378 nM | 999 nM | 1210 nM |  |  | 
27 | Cc1cc(-c2c(F)cc3c4nn([C@H]5CC[C@@H](N(C)C)CC5)c(=O)c-4cn(C4CC4)c3c2F)cc(C)n1 | 0.0936 µM and 0.889 µM | 0.0526 µM and 0.363 µM |  | 1.36 µM | 2.85 µM | 0.919 µM |  | 10.8 µM | 6.25 µM | 8.71 µM | 36.6 nM | 20.2 nM | 244 nM | 29.4 nM |  | 156 nM |  |  |  | 
28 | COc1ccc2nc(C(=O)c3ccccc3)c(C)cc2c1 | > 34.5 µM | 38.1 µM | > 100 µM | > 37.4 µM | > 66.7 µM | > 52 µM | 67.1 µM |  |  |  |  |  |  |  |  |  |  |  |  | 
29 | C1CN(c2nnc(N3CCC3)nn2)C1 | > 92.4 µM | 49.5 µM | > 100 µM | 59 µM | > 100 µM | > 100 µM | > 100 µM | > 100 µM | > 92.9 µM | > 100 µM |  |  |  |  |  |  |  |  |  | 
30 | Cc1c(C(=O)O)n(C)c(=O)n(C)c1=O | > 100 µM | > 100 µM |  | > 100 µM | > 100 µM | > 100 µM | > 100 µM |  |  |  |  |  |  |  |  |  |  |  |  | 
31 | CN(C)CCCn1c(=O)c2ccccc2c2cnc3[nH]ccc3c21 | 3.54 µM | 10.9 µM | 7.3 µM | 3.66 µM |  |  | 8.16 µM | 9.58 µM | 11.2 µM | 8.97 µM | 686 nM | 850 nM | 1800 nM | 2230 nM | 529 nM |  |  | 2950 nM | 2530 nM | 2140 nM
32 | S=C1Cc2c(-c3ccc(Br)cc3)cc(-c3ccccc3)nc2-c2ccccc2N1 | 21.4 µM | 1.79 µM | 65.8 µM | 9.15 µM |  |  | 4.41 µM | 18 µM | 3.84 µM | 10.3 µM |  | 632 nM |  |  |  |  |  |  |  | 
33 | Cc1ccc(NC(=O)C(=O)CC(=O)c2c(C)n([O-])c3ccccc3[n+]2=O)cc1C | > 100 µM | > 100 µM | > 100 µM | > 100 µM |  | > 100 µM | > 100 µM |  |  |  |  |  |  |  |  |  |  |  |  | 

Reference: PubChem BioAssay (NCI)
